Assays:
[1] = test system: Ventricular arrhythmia; assay: Harris Dog Efficacy (ventricular arrhythmia induced by 2-stage coronary artery ligation in unanesthetized dogs); assay type: in vivo; conditions: for activity in the dog ventricular arrhythmia test: active = at least 25% reduction in ectopic beats for at least 10 minutes in half or more of dogs; for minimal effective dose: Canis lupus familiaris, 10 min, intravenous, unanesthetized dogs, at least 25% reduction in ectopic beats for at least 10 minutes in half or more of dogs
Method: Ventricular arrhythmia is induced by a 2-stage ligation of the anterior descending branch of the left coronary artery in each of two or more unanesthetized dogs. The test compound is administered intravenously at 5 mpk doses to a maximum dose of 20 mpk.

[2] = biological target: Muscarinic Receptor; assay: Muscarinic Receptor Binding Assay (3H-QNB displacement, rat brain homogenate); conditions: inhibition of specific 3H-QNB binding by 50%, 0.15 nM 3H-QNB, pH 7.4, 25° C., 1 hour

| IC50 [2] [nM] | SMILES | activity in the dog ventricular arrhythmia test [1] | minimal effective dose [1] [mg/kg] |
| --- | --- | --- | --- |
|  | CC(C)N(CCC(C(N)=O)(c1ccccc1)c1ccccn1)C(C)C (stereo not shown) [Norpace, reference compound] | active |  |
| 3600 | CCCN(CCC)CCCC1(c2ccccc2Cl)CC(=O)NC1=O (stereo not shown) [Example 14] |  | 1 |
| 20 | CCN(CC)CCC1(c2ccccc2)CC(=O)NC1=O (stereo not shown) [Formula II (Prior Art), reference compound] |  | 2 |
|  | CCN(CC)CCNC(=O)c1ccc(N)cc1 [procainamide, reference compound] | active |  |
| 470 | CC1CCCC(C)N1CCC1(c2ccccc2Cl)CC(=O)NC1=O (stereo not shown) [Example 6, 3-(2-chlorophenyl)-3-[2-(2,6-dimethyl-1-piperidinyl)ethyl]-2,5-pyrrolidinedione] |  | 1.3 |
|  | C=C[C@H]1C[N@@]2CC[C@H]1C[C@@H]2[C@@H](O)c1ccnc2ccc(OC)cc12 [quinidine, reference compound] | active |  |
| 140 | CC(C)N(CCC1(c2ccccc2)CC(=O)NC1=O)C(C)C (stereo not shown) [Example 2, 3-[2-[bis(1-methylethyl)amino]ethyl]-3-phenyl-2,5-pyrrolidinedione] |  | 10 |
| 300 | CC(C)N(CCC1(c2ccccc2Cl)CC(=O)NC1=O)C(C)C (stereo not shown) [Example 4, 3-[2-[bis(1-methylethyl)-amino]ethyl]-3-(2-chlorophenyl)-2,5-pyrrolidinedione] |  | 2.8 |

— patent US4554353A, “2,5-Pyrrolidinedione derivatives useful as antiarrhythmic agents” (G. D. Searle & Co., priority 1984, dated 1985)
